The source of these data is patent EP0978281B1, “EYEDROPS CONTAINING A LORATIDINE METABOLITE” (Schering-Plough Kabushiki Kaisha, priority 1997, dated 1998).

The assay relates to IgE-immunized Rat Peritoneal Mast Cells. Put plainly: cells. The note with it: Mast cell, read-out: % inhibition of Histamine Release.

With `CCOC(=O)N1CCC(=C2c3ccc(Cl)cc3CCc3cccnc32)CC1` [Loratadine, ethyl 4-(8-chloro-5,6-dihydro-11H-benzo[5,6]cyclohepta[1,2-b]pyridin-11-ylidene)-1-piperidinecarboxylate], the inhibition at 0.3 µM was determined as 19.8 ± 5.77%, the inhibition at 1 µM was 27.1 ± 4.72%, the inhibition at 3 µM was 45.8 ± 9.26% and the inhibition at 10 µM was 73.3 ± 16.8%.

As usually defined, the inhibition is the drop in the measured response relative to a control, in per cent.
